Columns and labels:
[1] = molecular target: T1, human m3 muscarinic receptor (Homo sapiens, UniProt P20309); test: Affinity for human muscarinic receptors ([3H]-NMS binding, CHO cell membranes); settings: qualitative statement
T1 construct: expressed in transfected cells; host or cells: CHO (Chinese Hamster Ovarian) cells, crude membrane fraction
Protocol: Chinese Hamster Ovarian cells (CHO) expressing the human recombinant m1, m2, m3, m4 and m5 receptors were cultured in Ham's F12 media supplemented with 100 IU/ml of penicillin, 100 μg/ml of streptomycin, 400 μg/ml of geneticin and 5% of fetal bovine serum. Cell cultures were maintained in a humidified incubator at 37° C. and 5% CO2.
Confluent CHO cells expressing human m1, m2, m3, m4 and m5 muscarinic receptors were harvested and resuspended in phosphate buffered saline without calcium and magnesium. The cell suspension was centrifuged at 1500×g for 3 min (4° C.). The cell pellet was homogenized in a 15 mM Tris-HCl (pH 7.5) buffer containing 2 mM MgCl2, 0.3 mM EDTA and 1 mM EGTA. The crude membrane fraction was collected by two consecutive centrifugation steps at 40,000×g for 25 min (4° C.). The final pellet was resuspended, at a protein concentration ranging from 2 to 6 mg/ml, in a 7.5 mM Tris-HCl (pH 7.5) buffer containing 12.5 mM MgCl2, 0.3 mM EDTA, 1 mM EGTA and 250 mM sucrose and stored in liquid nitrogen.
Binding assays were performed according to procedure described in: Buckley N. J., Bonner T. I., Buckley C. M., Brann M. R., Mol. Pharmacol. (1989), 35, 469-476, but with slight modifications.
Briefly, 25 to 50 μg of membrane proteins were incubated at room temperature in 1 ml of a 50 mM Tris-HCl (pH 7.4) buffer containing 2 mM of MgCl2, 0.1 nM of [^3H]-NMS (N-methylscopolamine, 85 Ci/mmol, from Apbiotech, UK) and increasing concentrations of test compound dissolved in DMSO (1% final concentration). Non specific binding was measured in the presence of 1 μM atropine. After 60 (m2) or 120 (m3) min. incubation, assays were stopped by rapid vacuum filtration of the samples through glass fiber filters (Filtermat A, Wallac, Belgium) presoaked in 0.3% polyethyleneimine for at least 2 h. Samples were further rinsed with 8 ml of ice-cold 50 mM Tris-HCl (pH 7.4) buffer. Radioactivity trapped onto the filter was counted in a Betaplate counter (Wallac). Competition binding curves were analyzed by non-linear regression with XLfit software (UDBS, UK).

PDE IV = PDE IV enzymatic activity (SPA phosphodiesterase assay, cytosolic fraction from U937 cells); type: biochemical; settings: qualitative statement
Protocol: Cytosolic fraction from U937 cells pre-stimulated for 4 h at 37° C. with a mixture of rolipram 30 μM and salbutamol 1 μM (Torphy T. J., Zhou H. L., Cieslinski L. B., J. Pharmacol. Exp. Ther. (1992), 263 (3), 1195-1205).
Assays were performed in 100 μL of 50 mM Tris HCl buffer (pH 7.4) containing 5 mM MgCl2, 2 mM EGTA, 20 nM of [^3H]-cAMP (40-60 Ci/mmol), the cytosolic fraction of 50,000 U937 cells and the appropriate concentration of test compound (usually 10 μM) dissolved in DMSO (final assay concentration not exceeding 1%). After 30 min incubation at room temperature, 0.5 mg of SPA yttrium silicate beads are added to each sample. Radioactivity bound to the beads (5′-AMP) is determined by liquid scintillation. Non PDE IV activity and/or non specific binding of the labeled substrate to the SPA beads is defined as the residual radioactivity remaining in the presence of rolipram 32 μM (non PDE IV activity represents about 40% of total activity). PDE IV activity is determined by subtracting the non PDE TV activity from the total activity.

T1 sequence (P20309 whole entry): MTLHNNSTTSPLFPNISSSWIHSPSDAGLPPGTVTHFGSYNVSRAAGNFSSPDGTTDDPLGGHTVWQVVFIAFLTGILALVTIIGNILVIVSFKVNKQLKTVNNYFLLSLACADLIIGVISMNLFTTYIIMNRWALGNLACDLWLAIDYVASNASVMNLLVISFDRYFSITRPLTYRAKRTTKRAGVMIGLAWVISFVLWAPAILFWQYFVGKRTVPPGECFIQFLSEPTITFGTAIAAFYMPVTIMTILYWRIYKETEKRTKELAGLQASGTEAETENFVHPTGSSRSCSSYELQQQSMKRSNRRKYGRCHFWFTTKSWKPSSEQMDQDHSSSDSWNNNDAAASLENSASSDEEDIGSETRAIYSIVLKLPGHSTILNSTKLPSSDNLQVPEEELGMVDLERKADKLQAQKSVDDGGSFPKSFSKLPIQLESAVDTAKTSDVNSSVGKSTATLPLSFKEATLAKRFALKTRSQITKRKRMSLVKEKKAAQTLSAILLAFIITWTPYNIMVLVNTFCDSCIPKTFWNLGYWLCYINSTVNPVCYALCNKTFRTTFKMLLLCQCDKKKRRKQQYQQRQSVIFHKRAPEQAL

| Dual high affinities: m3 receptor part [1] | Compound | Dual high affinities: PDE IV part (PDE IV) |
| --- | --- | --- |
| high affinities | Cc1c(NC2CC2)nc(C2CCCC2)nc1N1CCCCCC1 [Compound 154, 6-(1-azepanyl)-2-cyclopentyl-N-cyclopropyl-5-methyl-4-pyrimidinamine] | high affinities |
| high affinities | C1CCCN(c2nc(C3CC3)nc3c2CCCN3)CC1 [Compound 155, 4-azepan-1-yl-2-cyclopropyl-5,6,7,8-tetrahydro-pyrido[2,3-d]pyrimidine] | high affinities |
| high affinities | C1CCCN(c2nc(C3CC3)nc3c2CCCCN3)CC1 [Compound 156, 4-azepan-1-yl-2-cyclopropyl-6,7,8,9-tetrahydro-pyrimido[4,5-b]azepine] | high affinities |
| high affinities | Cc1c(NC2CC2)nc(C2CC2)nc1N1CCCCC1 [Compound 175, N,2-dicyclopropyl-5-methyl-6-(1-piperidinyl)-4-pyrimidinamine] | high affinities |
| high affinities | Cc1c(NC2CC2)nc(C2CC2)nc1N1CCCC1 [Compound 180, N,2-dicyclopropyl-5-methyl-6-(1-pyrrolidinyl)-4-pyrimidinamine] | high affinities |
| high affinities | Cc1c(N2CCCCCC2)nc(C2CC2)nc1N1CCC1 [Compound 184, 1-(6-azetidin-1-yl-2-cyclopropyl-5-methylpyrimidin-4-yl)azepane] | high affinities |
| high affinities | Cc1c(N2CCCCCC2)nc(C2CC2)nc1N1CC(C)C1 [Compound 185, 1-[2-cyclopropyl-5-methyl-6-(3-methylazetidin-1-yl)pyrimidin-4-yl]azepane] | high affinities |
| high affinities | Cc1c(N2CCCCCC2)nc(C2CC2)nc1N1CC(O)C1 [Compound 189, 1-(6-azepan-1-yl-2-cyclopropyl-5-methylpyrimidin-4-yl)azetidin-3-ol] | high affinities |
| high affinities | CC1CN(c2cc(N3CCCCCC3)nc(C3CC3)n2)C1 [Compound 191, 1-[2-cyclopropyl-6-(3-methylazetidin-1-yl)pyrimidin-4-yl]azepane] | high affinities |
| high affinities | c1c(N2CCCCCC2)nc(C2CC2)nc1N1CCC1 [Compound 192, 1-(6-azetidin-1-yl-2-cyclopropylpyrimidin-4-yl)azepane] | high affinities |
| high affinities | Cc1c(N2CCCCCC2)nc(C2CC2)nc1N1CC(F)C1 [Compound 194, 1-[2-cyclopropyl-6-(3-fluoroazetidin-1-yl)-5-methylpyrimidin-4-yl]azepane] | high affinities |

| Compound | Dual high affinities: m3 receptor part [1] | Dual high affinities: PDE IV part (PDE IV) |
| --- | --- | --- |
| Cc1c(NC2CC2)nc(C2CC2)nc1N1CC2CCC(CC2)C1 [Compound 176, 6-(3-azabicyclo[3.2.2]non-3-yl)-N,2-dicyclopropyl-5-methyl-4-pyrimidinamine] | high affinities | high affinities |

Source: patent publication US7544675B2, “Chemical compounds with dual activity, processes for their preparation and pharmaceutical compositions” (UCB, S.A., priority 2002, dated 2009)
